Experimental data reported in patent US5792742A, “Fibrin-binding peptide fragments of fibronectin” (New York University, priority 1994, dated 1998).

Tests used:
fibrinogen = assay: Binding of eluted 11 kDa fragment to fibrinogen-SEPHAROSE column; details: 37° C.; ethylene glycol eluted material
thrombi = assay: Preliminary thrombus binding dose experiment in rats; type: in vivo; details: 3.4 μCi/13.3 μg/rat (550 gr)
Procedure: Determination of thrombus to blood and thrombus to muscle ratios: Before performing the pharmacokinetic studies, the arterial and venous vessels of the same animals are wounded until a thrombus is formed. The ascending vena cava (below the kidneys) and the descending aorta (immediately above the bifurcation) are clamped with a rubber tipped mosquito clamps for 2 hours for the artery and one hour for the vein. A thrombotic occlusion is formed of approximately 1.5 cm length. The specific binding of ^125 I-FBP (11 kDa to start) to the preformed thrombus, is determined compared to blood and muscle (wt/wt), over time, following injection. The amount of ^125 I-FBP that binds to an injured vessel versus an uninjured vessel is also quantitated. The time for optimal binding is crucial for feasibility of imaging (less than two hours would be considered adequate). The testing of binding to thrombi prepared 24 hours (or longer) ahead (preformed thrombi) compared to newly formed thrombi is also performed. This will determine the efficacy of ^125 I-FBP to older and newly forming thrombi.
Dosimetry Studies: Determination of the optimal dose (μCi/μg/kg) required for binding (Dose response) to thrombi: Three different doses were injected following injury, and thrombi removed at the various indicated above.

Substance: 11 kDa FBP: 11 kDa C-terminal proteolytic (subtilisin) fibrin-binding fragment of human plasma fibronectin, residues 2123-2232 of SEQ ID NO:1
- % of applied material bound to fibrinogen-SEPHAROSE column (fibrinogen): 4-5%
- binding to thrombi compared to blood (thrombi): sufficient binding to thrombi compared to blood
